Reference: patent publication US12433872B2, “Treatment of Acanthamoeba or Balamuthia trophozoites and/or cysts” (GEORGIA STATE UNIVERSITY RESEARCH FOUNDATION, INC., priority 2018, dated 2025)
Where two headings read alike, the source gives them in different places.

How the values were obtained:
Format in all cases: cell-based
[1] = test system: Acanthamoeba castellanii trophozoites; assay: Activity against Acanthamoeba castellanii trophozoites
Description: Two Acanthamoeba species (Acanthamoeba castellanii—ATCC50370 and Acanthamoeba culbertsoni—ATCC30171) were bought from the American Type Culture Collection (ATCC) and one species (Acanthamoeba healyi) was donated from the Centers for Disease Control and Prevention (CDC) for our experimentations. Trophozoites were thawed and grown in 10 mL of a nutrient rich Peptose-Glucose (PG) media. The PG media composition is 83.26 mM Glucose (15 g/L), Protease Peptone (15 g/L, yeast extract is manufactured under controlled conditions to retain its vitamin content and other nutritive values such as free amino acids, no other composition information given), 2.2 mM KH2PO4 (300 mg/L), 2.97 μM Thiamine (1 mg/L), 99.86 μM L-methionine (14.9 mg/L), 4.6 μM Vitamin B12 (83.3 μl of 0.1 mg/mL stock/L) and 68 μM Biotin (83.3 μl of 0.2 mg/mL stock/L). […] One mL/L of the salt solution was added to the media stock prior to autoclaving. All reagents were purchased from Sigma Aldrich except the Glucose which was purchased from Alfa Aesar. The cell pellet was resuspended in a final volume of 10 mL of PG media, cultured in 75 cm^2 coming tissue culture flasks and incubated at 27° C. PG was supplemented with 125 μg of penicillin/streptomycin. Sub-culturing occurred twice per week to allow the continued growth and development of the Acanthamoeba trophozoites. […]

A549 cells = assay: Toxicity to human A549 cells
[2] = test system: Acanthamoeba castellanii (ATCC50370) cysts; assay: Encystation drug susceptibility / excystation viability assay, 30 day recovery, A. castellanii cysts; settings: ATCC50370, 720 h, read-out: A. castellanii 30 day MCC
Description: (§1) The trophozoites of Acanthamoeba were harvested by mechanical detachment and collected via centrifugation at 4000 rpm at 4° C. for 5 minutes. The trophozoites were washed in 10 mL of Neff's Encystment Media (NEM). NEM composition is 20 mM Tris-HCL [pH 8.8] (2.43 g/L), 100 mM KCL (7.46 g/L), 8 mM MgSO4 (962.96 mg/L), 0.4 mM CaCL2 58.81 mg/L) and 1 mM NaHCO3 (84.01 mg/L) (Neff et al. 1964). All reagents were bought from Sigma Aldrich. Centrifugation of the trophozoites was repeated to ensure any residual growth medium was removed. The pellet was resuspended in a final volume of 15 mL of NEM, cultured in 75 cm^2 corning tissue culture flasks and incubated vertically in a thermal shaker, shaken at 100 rpm at 37° C. for 72 hours to produce fully matured cysts. NEM was supplemented with 250 μg of penicillin/streptomycin. Fresh cysts were produced each time for any experimentation.
(§2) At 72 hours the cysts were harvested using a cell scraper and collected via centrifugation at 4000 rpm at 25° C. for 10 minutes. The cells were washed twice in 10 mL of HyClone™ water, Molecular Biology Grade, and centrifugation was repeated to ensure the removal of any residual NEM. The cell suspension was washed with 0.5% sodium dodecyl sulphate (SDS) to remove any remaining trophozoites and immature cysts. The fully mature cysts were further washed twice with 10 mL of HyClone™ water and 1% NEM, centrifugation was repeated to remove any residue of SDS. The concentration of mature cysts was determined using a haemocytometer and adjusted to 1×10^4 cysts/mL in NEM.
(§3) All test compounds were prepared as 5 mg/mL stock solutions in dimethylsulfoxide (DMSO). All compounds were diluted in NEM, serially diluted in 2-fold dilutions 6 or 11 times, yielding a screening concentration range of 1.56 μg/mL to 50 μg/mL or 48 ng/mL to 50 μg/mL with a final highest screening concentration of 1% DMSO.
(§4) Based on this, a strain specific test period and also a 30 day non-specific recovery time were considered. For the 30 day recovery period, the media was changed 5 times to ensure the contents of wells dis not evaporate and have an effect within the results of the assay.
(§5) 90 μL of 1×10^4 Cysts/ml and 10 μL of experimental compounds from the screening plates were produced according to the protocols above and combined into a Corning clear 96 well treated tissue culture plate. Control wells include cysts in non-drug treated, 1% DMSO, NEM (to be used for negative growth control), NEM Blank, PG blank and cysts in non-drug treated, 1% DMSO, PG (to excyst cells and to be used for positive growth control). The total well volume for all wells was 100 μL. The drug exposed plates were screened at 27° C. for 6 or 24 hours only. At the exposure time point the plates were centrifuged at 4000 rpm at 25° C. for 10 minutes and washed twice with phosphate-buffered saline (PBS) to remove any residual experimental compound.
(§6) Once the plate(s) underwent the Encystation drug susceptibility process, all wells except the negative growth control and NEM blank wells received PG growth medium. All plates were left to recover at 27° C. for the strain specific time period of 5, 9 or 11 days depending on the species of Acanthamoeba. At each of the strain specific time points the plates were removed from incubation and microscopically analysed (qualitatively) for the excystation process for the emergence of excysted viable trophozoites or residual cysts. The presence of excysted trophozoites indicated viable amoebae (non-cystistatic or cysticidal—no effect) and the absence of excystation was considered as cystistatic/cysticidal effects.

[3] = test system: Acanthamoeba healyi cysts; assay: Encystation drug susceptibility / excystation viability assay, 30 day recovery, A. healyi cysts; settings: 720 h, read-out: A. healyi 30 day MCC
Description: as §1, §2, §3, §4, §5, §6

[4] = test system: Acanthamoeba culbertsoni (ATCC30171) cysts; assay: Encystation drug susceptibility / excystation viability assay, 30 day recovery, A. culbertsoni cysts; settings: ATCC30171, 720 h, read-out: A. culbertsoni 30 day MCC
Description: as §1, §2, §3, §4, §5, §6

[5] = test system: Balamuthia mandrillaris trophozoites; assay: Activity against Balamuthia mandrillaris trophozoites; settings: for IC50: Balamuthia mandrillaris
Description: Balamuthia mandrillaris trophozoites were thawed and grown in 10 ml of BM-3 medium. […] After autoclaving, complete BM-3 media was produced by the addition of 10% fetal bovine serum and 125 μg of penicillin/streptomycin antibiotics. The table describes all of the compounds and the activity against Balamuthia trophozoites compared to the activity for select Acanthamoeba trophozoites shown in Table 5.

[6] = read-out: A. cactellanii Trophozoite IC50
[7] = read-out: Acanthamoeba castellanii IC50
[8] = Homo sapiens, A549, read-out: A549 cell IC50
[9] = read-out: Balamuthia mandrillaris IC50
[10] = trophozoites, n = 2, Table 6, read-out: Acanthamoeba castellanii IC50
[11] = human A549 cells, read-out: A549 cell IC50
[12] = minimum cysticidal concentration, no recovery up to 30 days
[13] = trophozoites, n = 2, read-out: Balamuthia mandrillaris IC50

Row | Compound | IC50 [1, 6] [µM] | IC50 [1, 7] [µM] | IC50 (A549 cells; [8]) [µM] | MCC [2] [µM] | MCC [3] [µM] | MCC [4] [µM] | IC50 [5, 9] [µM] | IC50 [1, 10] [µM] | IC50 (A549 cells; [11]) [µM] | MCC [2, 12] [µM] | MCC [3, 12] [µM] | MCC [4, 12] [µM] | IC50 [5, 13] [µM] | times more potent than pentamide as reported in Schuster et al. ([5]; B. mandrillaris, versus pentamidine 29.38 μM) | IC50 ([5]; read-out: IC50 against B. mandrillaris) [µM]
1 | CC(C)NC(=N)c1ccc2nc(-c3cc(F)c(Oc4ccc(-c5nc6ccc(C(=N)NC(C)C)cc6[nH]5)c(F)c4)c(F)c3)[nH]c2c1 [Compound C, 2-(3,5-Difluoro-4-(3-fluoro-4-(6-(N-isopropylcarbamimidoyl)-1H-benzo[d]imidazol-2-yl)phenoxy)phenyl)-N-isopropyl-1H-benzo[d]imidazole-6-carboximidamide] | 1.22 | 1.22 | 34.8 | 23.1 | 23.1 | 11.6 | 0.49 | – | – | – | – | – | – | – | –
2 | COc1cc(Oc2ccc(-c3nc4ccc(C(=N)NC(C)C)cc4[nH]3)c(Br)c2)ccc1-c1nc2ccc(C(=N)NC(C)C)cc2[nH]1 [N, 2-(2-Bromo-4-(4-(6-(N-isopropylcarbamimidoyl)-1H-benzo[d]imidazol-2-yl)-3-methoxyphenoxy)phenyl)-N-isopropyl-1H-benzo[d]imidazole-6-carboximidamide] | – | – | – | – | – | – | – | 0.56 | 3.92 | 9.2 | 5.52 | 3.68 | 0.12 | – | –
3 | CC(C)NC(=N)c1ccc2nc(-c3ccc(Oc4ccc(-c5nc6ccc(C(=N)NC(C)C)cc6[nH]5)c(Br)c4)cc3Br)[nH]c2c1 [Compound D, 2,2′-(Oxybis(2-bromo-4,1-phenylene))bis(N-isopropyl-1H-benzo[d]imidazole-6-carboximidamide)] | 0.31 | 0.31 | 4.17 | 3.4 | 3.4 | 1.27 | 0.1 | – | – | – | – | – | – | – | –
4 | CCC(CC)NC(=N)c1ccc2nc(-c3ccc(Oc4ccc(-c5nc6ccc(C(=N)NC(CC)CC)cc6[nH]5)cc4)cc3)[nH]c2c1 [Compound T] | – | – | – | – | – | – | – | 1.13 | 31.4 | 11.4 | 7.61 | 5.71 | 0.14 | – | –
5 | CC(C)NC(=N)c1ccc2nc(-c3ccc(Oc4ccc(-c5nc6ccc(C(=N)NC(C)C)cc6[nH]5)cc4Br)cc3)[nH]c2c1 [O, 2-(3-Bromo-4-(4-(6-(N-isopropylcarbamimidoyl)-1H-benzo[d]imidazol-2-yl)phenoxy)phenyl)-N-isopropyl-1H-benzo[d]imidazole-6-carboximidamide] | – | – | – | – | – | – | – | 0.67 | 3.71 | 11.4 | 11.4 | 11.4 | 0.13 | – | –
6 | CC(C)NC(=N)c1ccc2nc(-c3cc(F)c(Oc4ccc(-c5nc6ccc(C(=N)NC(C)C)cc6[nH]5)c(Br)c4)c(F)c3)[nH]c2c1 [Compound F, 2-(2-Bromo-4-(2,6-difluoro-4-(6-(N-isopropylcarbamimidoyl)-1H-benzo[d]imidazol-2-yl)phenoxy)phenyl)-N-isopropyl-1H-benzo[d]imidazole-6-carboximidamide] | 0.59 | 0.59 | 13.7 | 5.29 | 3.52 | 5.29 | 0.59 | – | – | – | – | – | – | – | –
7 | CC(C)NC(=N)c1ccc2nc(-c3ccc(Oc4ccc(-c5nc6ccc(C(=N)NC(C)C)cc6[nH]5)cc4F)cc3)[nH]c2c1 [Compound I, 2-(3-Fluoro-4-(4-(6-(N-isopropylcarbamimidoyl)-1H-benzo[d]imidazol-2-yl)phenoxy)phenyl)-N-isopropyl-1H-benzo[d]imidazole-6-carboximidamide] | – | – | – | – | – | – | – | 0.71 | 3.46 | 4.2 | 4.2 | 8.41 | 0.05 | 587.6 | 0.05
8 | COc1cc(Oc2ccc(-c3nc4ccc(C(=N)NC(C)C)cc4[nH]3)cc2F)ccc1-c1nc2ccc(C(=N)NC(C)C)cc2[nH]1 [K, 2-(3-Fluoro-4-(4-(6-(N-isopropylcarbamimidoyl)-1H-benzo[d]imidazol-2-yl)-3-methoxyphenoxy)phenyl)-N-isopropyl-1H-benzo[d]imidazole-6-carboximidamide] | – | – | – | – | – | – | – | 1.1 | 4.03 | 9.65 | 7.72 | 7.89 | 0.14 | – | –
